Measurements published in US20240076272A1, “Activators of Heme Regulated Inhibitor Kinase (HRI)” (The Brigham and Women`s Hospital, Inc., priority 2019, published 2024).
Read-outs that look alike come from different tables or passages of the source.

Experiments:
[1] = tested on: MCF-7 cells transfected with siRNA targeting HRI; test: cell proliferation assay with siRNA knockdown of HRI (specificity for HRI); type: cell-based, human; details: MCF-7 cells with or without siRNA targeting HRI; three days; SRB (FIG. 3)
Procedure: MCF-7 cells transfected with (solid bars) or without (hatched bars) siRNA targeting HRI were treated with the indicated concentrations of each compound for three days starting one day after transfection. Cell proliferation was measured by sulforhodamine B assay as previously reported (see e.g., Chen et al, Nat. Chem. Biol. 7 (2011) 610-616).
Stable cell lines utilized in this study were generated according to previous reports (see e.g., Bai et al, ChemBioChem, 14 (2013) 1255-1262). Briefly, cells were seeded at the density of 10^5 in 60-mm dish and transfected one day later using the Lipofectamine 2000 (Invitrogen). For selection of stable cell lines, transfected cells were transferred to 100-mm plates and selected with appropriate antibiotics (see e.g., Chen et al, Nat. Chem. Biol. 7 (2011) 610-616). siRNA knockdown was carried out in 96-well plates by reverse transfection as previously reported (see e.g., Chen et al, Nat. Chem. Biol. 7 (2011) 610-616).
To determine the specificity of the compounds described herein for HRI, knockdown expression of HRI in MCF-7 cells using a pool of siRNA targeting HRI was performed, along with a cell proliferation assay as a biologic response parameter (see e.g., Chen et al, Nat. Chem. Biol. 7 (2011) 610-616; and Chen et al, J. Med. Chem. 56 (2013) 9457-9470). This assay was selected because it compares specificity of the compounds for HRI compared to all other cellular targets that can impinge on cell proliferation. MCF-7 human breast cancer cells transfected with siRNA targeting HRI or vehicle were treated with various concentrations of representative 4-CF3-ΦOcHΦUs (1-VI, 4-VI, and 5-VI) and 4-CF3-ΦOcBΦU (1-IV).

cyclin D1 = test: Western blot, cyclin D1 expression in CRL-2813 cells; type: cell-based, human; details: 5 μM, 8 hours, Western blot (FIG. 2B)
Procedure: (§1) FIGS. 2A-2B show HRI activators of the present application induce eIF2α phosphorylation and modify its downstream effectors. In FIG. 2A, CRL-2813 cells were treated with 5 μM of each compound for 2 hours, cell lysates were probed with phosphorylated (P-eIF2α) and total eIF2α (T-eIF2α) and β-actin specific antibodies. In FIG. 2B, CRL-2813 cells were treated with 5 μM HRI activators for 8 hours and lysates were immunoblotted with antibodies against CHOP, p27^KiPl, cyclin D1 and β-actin.
(§2) Cells cultured under recommended media conditions were plated and maintained in serum-containing media without antibiotics in 14-cm plates (Nunc) until reaching 70% confluence. Cells were then treated with compounds for 6 h, washed with cold PBS once, and lysed with M-PER Mammalian Protein Extraction Reagent (Pierce) for 30 min on ice. The cell lysates were centrifuged at 12,000 RPM for 15 min and the supernatants were transferred to fresh tubes and the concentrations were determined by BCA (Pierce). Equal amount of proteins were mixed with Laemmli Sample Buffer, heated at 100° C. for 5 min, separated by SDS-PAGE, and probed with anti-phosphoserine-51-eIF2α (Phos-eIF2α), anti-total eIF2α-specific antibodies (Total-eIF2α) (Biosource International, Hopkinton, MA), anti-CHOP, anti-cyclin D1 or anti-actin (Santa Cruz Biotechnology, CA) using procedures substantially similar to previous reports (see e.g., Aktas et al, Mol. Cell. Biol. 17 (1997) 3850-3857).
(§3) Endogenous eIF2α is the best-known substrate of HRI and the upstream regulator of the eIF2·GTP·Met-tRNAi ternary complex abundance, while CHOP expression is a downstream effector of eIF2α phosphorylation. For assessing eIF2α phosphorylation, blotted cell lysates were treated for two hours with vehicle or selected compounds using antibodies specific for the total-eIF2α and the phosphorylated-eIF2α (T-eIF2α and [PhoS^51]-eIF2α), respectively (see e.g., Aktas et al, J. Nutr. 134 (2004) 2487S-2491S) (see FIG. 2A).

[2] = tested on: human melanoma CRL-2813 cells; test: sulforhodamine B (SRB) cell proliferation assay; type: cell-based; details: 5 days, read-out: IC50 (concentration that inhibits growth of human melanoma CRL-2813 cells by 50%)
Procedure: Cells were seeded in 96-well plates and maintained for 5 days in the presence of 0.5 μM to 20 μM of individual compound, and cell proliferation was measured by the sulforhodamine B (SRB) assay according to previous reports (see e.g., Palakurthi et al, Cancer Res. 60 (2000) 2919-2925): briefly, at the end of a 5-day treatment, cells were fixed in 10% cold trichloroacetic acid. Cell number was estimated by measuring the remaining bound dye of sulforhodamine B after washing. The percentage of growth was calculated by using the equation: 100×[(T-T0)/(C-T0)], where T and C represent the absorbance in treated and control cultures at Day 5, and T0 at time zero, respectively. If T was less than T0, cell death had occurred and was calculated from 100×[(T-T0)/T0].
All 4-CF3-ΦOcAlkΦUs were tested in the sulforhodamine B (SRB) cell proliferation assay to establish the concentrations that inhibit human melanoma CRL-2813 cells growth by 50% (IC50) (see Table 1). This activity reflects a combined effect of membrane permeability and overall anti-proliferative effects that include on target and off-target effects.

CHOP = test: Western blot, CHOP expression in CRL-2813 cells; type: cell-based, human; details: 5 μM, 8 hours, Western blot (FIG. 2B)
Procedure: as §1, §2, §3

IC50 ([2]; Homo sapiens, CRL2813, 120 h) [nM] | Structure (SMILES) | effect of knocking down HRI on the anti-proliferative activity [1] | expression of cyclin D1 relative to DMSO (cyclin D1) | expression of CHOP relative to DMSO (CHOP) | IC50 [2] [nM]
900 | N#Cc1cc(NC(=O)N[C@H]2C[C@H](Oc3ccc(C(F)(F)F)cc3)C2)cc(C(F)(F)F)c1 [Compound 1-IV, 1-(3-Cyano-5-(trifluoromethyl)phenyl)-3-(trans-3-(4-(trifluoromethyl)phenoxy)cyclobutyl)urea] | dramatic reduction in the activity | decreased the expression of cyclin D1 | increased the expression of CHOP | 
 | N#Cc1cc(NC(=O)N[C@H]2CC[C@H](Oc3ccc(C(F)(F)F)cc3)CC2)cc(C(F)(F)F)c1 [Compound 1-VI, 1-(3-cyano-5-trifluoromethyl) phenyl-3-(trans-4-(4-(trifluoromethyl)phenoxy)cyclohexyl)urea, reference compound] | dramatic reduction in the activity | decreased the expression of cyclin D1 | increased the expression of CHOP | 350
 | N#Cc1cc(F)cc(NC(=O)N[C@H]2CC[C@H](Oc3ccc(C(F)(F)F)cc3)CC2)c1 [Compound 4-VI, 1-(3-Cyano-5-fluorophenyl)-3-(trans-4-(4-(trifluoromethyl)phenoxy)cyclohexyl)urea] | dramatic reduction in the activity | decreased the expression of cyclin D1 | increased the expression of CHOP | 630 ± 300
460 | N#Cc1ccc(NC(=O)N[C@H]2CC[C@H](Oc3ccc(C(F)(F)F)cc3)CC2)cc1F [Compound 5-VI, 1-(4-Cyano-3-fluorophenyl)-3-(trans-4-(4-(trifluoromethyl)phenoxy)cyclohexyl)urea] | dramatic reduction in the activity | decreased the expression of cyclin D1 | increased the expression of CHOP | 
